Assays:
PC3 = experiment: Cellular proliferation assay (Alamar blue), PC3; assay type: cell-based; details: 10% FCS, 72 h with compound, Alamar blue 24 h; for IC50: Homo sapiens, PC-3, PC-3 cells, read-out: pIC50 PC-3 (converted)
Method in brief: (§1)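 10% FCS, 37° C., 5% CO2; seed, 24 h no compound; 72 h compound; Alamar blue (resazurin 9 μg/ml, ferro-/ferricyanide 90 μM each) 4 h HCT-116, 6 h U87-MG, 24 h PC3/A2780; fluorescence 544/590 nm; normalised to controls.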

H1299 = experiment: Cellular proliferation assay (Alamar blue), H1299; assay type: cell-based; details: 10% FCS, 72 h with compound, Alamar blue 4 h; for IC50: Homo sapiens, NCI-H1299, H1299 cells, read-out: pIC50 H1299 (converted)
Method in brief: (§2)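 Viable cell number is determined by Alamar blue conversion after cells are treated with compound for 72 hours, following 24 hours of growth without compound in 10% FCS. The effect is calculated against control cells.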

A2780 = experiment: Cellular proliferation assay (Alamar blue), A2780; assay type: cell-based; details: 10% FCS, 72 h with compound, Alamar blue 24 h; for IC50: Homo sapiens, A2780, A2780 cells, read-out: pIC50 A2780 (converted)
Method in brief: as §1

PLK4 (h) = target: T1, PLK4 (h) (Homo sapiens, UniProt O00444); experiment: PLK-4 human kinase scintillation proximity assay (SPA); assay type: biochemical; details: 1 μM ATP, 60 minutes at r.t., read-out: PLK4 pIC50 (converted)
T1 sequence (O00444 1-970): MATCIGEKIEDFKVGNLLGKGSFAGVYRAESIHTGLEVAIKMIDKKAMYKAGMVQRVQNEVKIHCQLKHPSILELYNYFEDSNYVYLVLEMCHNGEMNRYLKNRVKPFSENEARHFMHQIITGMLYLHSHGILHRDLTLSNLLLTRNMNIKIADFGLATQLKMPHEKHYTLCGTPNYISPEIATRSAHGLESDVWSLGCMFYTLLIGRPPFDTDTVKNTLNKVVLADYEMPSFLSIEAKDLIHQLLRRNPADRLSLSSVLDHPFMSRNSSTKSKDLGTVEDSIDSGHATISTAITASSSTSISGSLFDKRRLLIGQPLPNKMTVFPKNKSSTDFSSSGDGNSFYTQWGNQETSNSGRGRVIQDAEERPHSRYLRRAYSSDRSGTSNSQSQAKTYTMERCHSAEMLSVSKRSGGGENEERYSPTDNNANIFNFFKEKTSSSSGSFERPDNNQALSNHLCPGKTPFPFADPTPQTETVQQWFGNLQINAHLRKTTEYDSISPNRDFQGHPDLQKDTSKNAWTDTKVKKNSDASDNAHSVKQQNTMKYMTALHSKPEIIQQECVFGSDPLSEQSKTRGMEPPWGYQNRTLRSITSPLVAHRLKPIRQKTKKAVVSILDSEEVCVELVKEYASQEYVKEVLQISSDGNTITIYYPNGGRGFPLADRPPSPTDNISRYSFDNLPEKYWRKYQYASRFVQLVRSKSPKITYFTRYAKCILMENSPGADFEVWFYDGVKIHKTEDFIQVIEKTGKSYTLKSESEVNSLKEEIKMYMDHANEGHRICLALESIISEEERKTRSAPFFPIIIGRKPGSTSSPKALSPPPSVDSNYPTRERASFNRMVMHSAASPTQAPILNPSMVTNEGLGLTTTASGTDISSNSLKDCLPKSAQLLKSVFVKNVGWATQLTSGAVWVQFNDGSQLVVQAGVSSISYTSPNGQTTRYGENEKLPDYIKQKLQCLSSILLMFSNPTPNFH
Method in brief: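 Human PLK4 (19 μg/ml) reacted with 10 μM biotinylated peptide, 1 μM ATP plus 2 nM [γ-33P]ATP in HEPES pH 8.0 with MgCl2, NaCl, NaF and DTT for 60 min at r.t. After an EDTA stop, phosphorylated substrate was captured on streptavidin PVT SPA beads and scintillation imaged.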

MDA-MB-231 = experiment: Cellular proliferation assay (Alamar blue), MDA-MB-231; assay type: cell-based; details: 10% FCS, 72 h with compound, Alamar blue 24 h; for IC50: Homo sapiens, MDA-MB-231, MDA-MB-231 cells, read-out: pIC50 MDA/MB231 (converted)
Method in brief: as §2

HCT-116 = experiment: Cellular proliferation assay (Alamar blue), HCT-116; assay type: cell-based; details: Homo sapiens; HCT-116 cells; 10% FCS; 72 h with compound; Alamar blue 4 h; read-out: pIC50 HCT-116 (converted)
Method in brief: as §1

U87-MG = experiment: Cellular proliferation assay (Alamar blue), U87-MG; assay type: cell-based; details: Homo sapiens, U-87 MG; U87-MG cells; 10% FCS; 72 h with compound; Alamar blue 6 h; read-out: pIC50 U87MG (converted)
Method in brief: as §1

Row | SMILES | IC50 (PC3) | IC50 (H1299) | IC50 (A2780) | IC50 (PLK4 (h)) | IC50 (MDA-MB-231) | IC50 (HCT-116) | melting point | IC50 (U87-MG) | pIC50 PC-3 (PC3; PC-3 cells) | pIC50 H1299 (H1299; H1299 cells) | pIC50 A2780 (A2780; A2780 cells) | pIC50 MDA/MB231 (MDA-MB-231; MDA-MB-231 cells)
1 | CC(C)OCCOc1ccc2cc1OCC(=O)N(C)CCCN(C)Cc1c[nH]c3ncnc(c13)N2 [Compound 131] | 7940 nM | 100 nM | 50.1 nM | 50.1 nM | 3160 nM | 63.1 nM |  | 2000 nM |  |  |  | 
2 | COCCCOc1ccc2cc1OCC(=O)N(C)CCCN(C)Cc1c[nH]c3ncnc(c13)N2 [Compound 132] | 3980 nM | 3980 nM | 1260 nM | 79.4 nM | 3980 nM | 1580 nM |  | 2000 nM |  |  |  | 
3 | CN1CCCN(C)C(=O)COc2cc(ccc2OCCN2CCCCC2)Nc2ncnc3[nH]cc(c23)C1 [Compound 136] | 2510 nM | 5010 nM | 1000 nM | 251 nM | 3160 nM | 2510 nM |  | 1580 nM |  |  |  | 
4 | COCCOc1ccc2cc1OCC(=O)N(C)CCCNCc1c[nH]c3ncnc(c13)N2 [Compound 138] | > 10000 nM | 5010 nM | 631 nM | 25.1 nM | > 10000 nM | 1000 nM |  | > 10000 nM |  |  |  | 
5 | COCCN(CCOc1ccc2cc1OCC(=O)N(C)CCCN(C)Cc1c[nH]c3ncnc(c13)N2)C(C)C [Compound 140] | 1580 nM | 3160 nM | 1000 nM | 158 nM | 1580 nM | 1000 nM |  | 1000 nM |  |  |  | 
6 | CN1CCCN(C)C(=O)COc2cc(ccc2OCCSc2nccn2C)Nc2ncnc3[nH]cc(c23)C1 [Compound 143] | 5010 nM | 6310 nM | 1260 nM | 63.1 nM | 5010 nM | 1580 nM |  | 3160 nM |  |  |  | 
7 | COc1cc(NC(=O)COc2ccc3cc2OCC(=O)N(C)CCCN(C)Cc2cn(C)c4ncnc(c24)N3)cc(OC)c1OC [Compound 145] | > 10000 nM | > 10000 nM | > 10000 nM | 5010 nM | > 10000 nM | > 10000 nM |  | > 10000 nM |  |  |  | 
8 | CN1CCCN(C)C(=O)COc2cc(ccc2OCC2CCN(Cc3ccccc3)CC2)Nc2ncnc3[nH]cc(c23)C1 [Compound 149] | 1000 nM | ≥ 10000 nM | 316 nM |  | 1000 nM | 398 nM | 241 °C | 501 nM |  |  |  | 
9 | CN1CCCN(C)C(=O)COc2cc(ccc2OCCSc2ccc(Cl)cc2)Nc2ncnc3[nH]cc(c23)C1 [Compound 150] | 5010 nM | ≥ 10000 nM | 63.1 nM |  | 2510 nM | 63.1 nM | 252.6 °C |  |  |  |  | 
10 | COc1ccc(OCCOc2ccc3cc2OCC(=O)N(C)CCCN(C)Cc2c[nH]c4ncnc(c24)N3)cc1 [Compound 155] | 2510 nM | 126 nM | 31.6 nM |  | 2510 nM | 63.1 nM | 250.4 °C | 251 nM |  |  |  | 
11 | CN1CCCN(C)C(=O)COc2cc(ccc2OCCN(C)c2nccs2)Nc2ncnc3[nH]cc(c23)C1 [Compound 157] | 3160 nM | 1260 nM | 501 nM |  | 3160 nM | 501 nM | 232.2 °C | 1000 nM | 5.6 | 6.00 | 6.4 | 5.6

Now from value to compound:

Row | IC50 (PC3) | IC50 (H1299) | IC50 (A2780) | IC50 (PLK4 (h)) | IC50 (MDA-MB-231) | IC50 (HCT-116) | melting point | IC50 (U87-MG) | pIC50 PC-3 (PC3; PC-3 cells) | pIC50 H1299 (H1299; H1299 cells) | pIC50 A2780 (A2780; A2780 cells) | pIC50 MDA/MB231 (MDA-MB-231; MDA-MB-231 cells) | SMILES
12 | > 10000 nM | > 10000 nM | > 10000 nM | 200 nM | > 10000 nM | > 10000 nM | 265.3 °C |  |  |  |  |  | COc1ccc2cc1OCCCC(=O)N(C)CC1CN(Cc3c[nH]c4ncnc(c34)N2)C1 [Compound 73]
13 |  |  |  | 200 nM |  |  | 270.9 °C |  |  |  |  |  | CN1CCCN(C)C(=O)COc2cc(ccc2OC2CCOCC2)Nc2ncnc3[nH]cc(c23)C1 [Compound 74]
14 | 5010 nM | 1580 nM | 501 nM | 39.8 nM | 3160 nM | 631 nM |  | 2000 nM |  |  |  |  | CCOCCCOc1ccc2cc1OCC(=O)N(C)CCCN(C)Cc1c[nH]c3ncnc(c13)N2 [Compound 130]
15 | 2510 nM | 200 nM | 63.1 nM | 63.1 nM | 3160 nM | 79.4 nM |  | 2510 nM |  |  |  |  | CN1CCCCN(C)C(=O)COc2cc(ccc2OCC(=O)Nc2ccc(Cl)cc2)Nc2ncnc3[nH]cc(c23)C1 [Compound 133]
16 | 6310 nM | 398 nM | 39.8 nM | 79.4 nM | 5010 nM | 126 nM |  | 3160 nM |  |  |  |  | CN1CCCN(C)C(=O)COc2cc(ccc2OCCOc2ccc(Cl)cc2)Nc2ncnc3[nH]cc(c23)C1 [Compound 134]
17 | 3160 nM | 3980 nM | 794 nM | 398 nM | 3160 nM | 1260 nM |  | 1580 nM |  |  |  |  | CN1CCCN(C)C(=O)COc2cc(ccc2OCCCN2CCOCC2)Nc2ncnc3[nH]cc(c23)C1 [Compound 137]
18 | 1000 nM | 794 nM | 631 nM | 63.1 nM | 1580 nM | 501 nM |  | 1000 nM |  |  |  |  | CN1CCCN(C)C(=O)COc2cc(ccc2Br)Nc2ncnc3[nH]cc(c23)C1 [Compound 139]
19 | 3160 nM | 1260 nM | 200 nM | 39.8 nM | 3980 nM | 398 nM |  | 2510 nM |  |  |  |  | COCCN(CCOc1ccc2cc1OCC(=O)N(C)CCCN(C)Cc1c[nH]c3ncnc(c13)N2)Cc1ccccc1 [Compound 141]
20 | 10000 nM | 2000 nM | 398 nM | 79.4 nM | > 10000 nM | 631 nM |  | 3160 nM |  |  |  |  | CN1CCCN(C)C(=O)COc2cc(ccc2OCCCNc2ccc(Cl)cc2)Nc2ncnc3[nH]cc(c23)C1 [Compound 142]
21 | > 10000 nM | > 10000 nM | > 10000 nM | 631 nM | > 10000 nM | > 10000 nM |  | > 10000 nM |  |  |  |  | CN1CCCN(C)C(=O)COc2cc(ccc2Cl)Nc2ncnc3c2c(cn3C)C1 [Compound 146]
22 | > 10000 nM | > 10000 nM | 2510 nM |  | > 10000 nM | > 10000 nM | 251 °C | > 10000 nM |  |  |  |  | CCOCCOc1ccc2cc1OCC(=O)N(C)CCCN(C)Cc1c[nH]c3nc(C)nc(c13)N2 [Compound 147]
23 | 3160 nM | 2000 nM | 501 nM |  | 3160 nM | 631 nM | 238.4 °C | 1260 nM |  |  |  |  | CN1CCCN(C)C(=O)COc2cc(ccc2OCCNc2nccs2)Nc2ncnc3[nH]cc(c23)C1 [Compound 156]
24 |  |  |  |  |  |  | 201.4 °C |  |  |  |  |  | COCCOc1c(OC)cc2cc1OCC(=O)N(C)CCCN(C)Cc1c[nH]c3ncnc(c13)N2 [Compound 161]

From patent US8318731B2, “Pyrrolopyrimidines” (Janssen Pharmaceutica NV, priority 2007, dated 2012)
